We go through one molecule from article PMC9369154, “Molecular Basis for Luteolin as a Natural TatD DNase Inhibitor in Trueperella pyogenes” (International Journal of Molecular Sciences, 2022).

Test [1] addresses T1, TatD825 (Trueperella pyogenes, UniProt A0ABV3NC31).
T1 construct: gene V3M73_06995; His-TatD 825 recombinant protein expressed in E. coli BL21 (DE3)
Put plainly: SPR (Biacore T200, NTA chip, […] binding model); DNase gel assay with Mg2+ also shows inhibition. Background: Surface plasmon resonance follows binding to a sensor surface in real time, without labels.

In test [2] the target is T2, TatD960 (Trueperella pyogenes, UniProt A0ABV3N8R6).
T2 construct: gene V3M73_00540; His-TatD 960 recombinant protein expressed in E. coli BL21 (DE3)
Described as above.

As for `O=c1cc(-c2ccc(O)c(O)c2)oc2cc(O)cc(O)c12` [luteolin, 3′,4′,5,7-tetrahydroxyflavone], the Kd in test [1] was determined as 5.65 µM; in test [2] it was 6.27 µM.

Usually Kd stands for the equilibrium constant for the complex coming apart. The low end stands for tighter binding, the high end for weaker binding.
